We go through 1 molecule from ChEMBL document CHEMBL5137068, “Discovery of Hexahydrofuro[3,2-b]furans as New Kinase-Selective and Orally Bioavailable JAK3 Inhibitors for the Treatment of Leukemia Harboring a JAK3 Activating Mutant” (J Med Chem, 2022).

A short description of data set [1]: Half life in 12 hr fasted SPF Sprague-Dawley rat at 5 mg/kg, iv upon 2 hrs fasting post-administration measured upto 24 hrs. Type of data set: ADME, organism-based. As to conditions: in vivo.
A short description of data set [2]: AUC(0 to infinity) in 12 hr fasted SPF Sprague-Dawley rat at 15 mg/kg, po upon 2 hrs fasting post-administration upto 24 hrs. Type of data set: ADME, organism-based. Set-up: dose 15 mg/kg, time < 24 hrs, route po. Particulars: in vivo.
Data set [3] in a line: AUC(0 to infinity) in 12 hr fasted SPF Sprague-Dawley rat at 5 mg/kg, iv upon 2 hrs fasting post-administration measured upto 24 hrs. Type of data set: ADME, organism-based. Also noted: dose 5 mg/kg, time < 24 hrs, route iv. As to conditions: in vivo.
Data set [4] deals with Cyclin-Y/Cyclin-dependent kinase 16 (Homo sapiens) (UniProt Q00536+Q8ND76). Nature of the data set: Inhibition of human CDK16/cyclin-Y at 0.5 uM relative to control. Type of data set: protein-complex assay.
For data set [5], the target named is NUAK family SNF1-like kinase 1 (Homo sapiens, UniProt O60285). Nature of the data set: Inhibition of human ARK5.
NUAK family SNF1-like kinase 1, sequence (O60285 whole entry): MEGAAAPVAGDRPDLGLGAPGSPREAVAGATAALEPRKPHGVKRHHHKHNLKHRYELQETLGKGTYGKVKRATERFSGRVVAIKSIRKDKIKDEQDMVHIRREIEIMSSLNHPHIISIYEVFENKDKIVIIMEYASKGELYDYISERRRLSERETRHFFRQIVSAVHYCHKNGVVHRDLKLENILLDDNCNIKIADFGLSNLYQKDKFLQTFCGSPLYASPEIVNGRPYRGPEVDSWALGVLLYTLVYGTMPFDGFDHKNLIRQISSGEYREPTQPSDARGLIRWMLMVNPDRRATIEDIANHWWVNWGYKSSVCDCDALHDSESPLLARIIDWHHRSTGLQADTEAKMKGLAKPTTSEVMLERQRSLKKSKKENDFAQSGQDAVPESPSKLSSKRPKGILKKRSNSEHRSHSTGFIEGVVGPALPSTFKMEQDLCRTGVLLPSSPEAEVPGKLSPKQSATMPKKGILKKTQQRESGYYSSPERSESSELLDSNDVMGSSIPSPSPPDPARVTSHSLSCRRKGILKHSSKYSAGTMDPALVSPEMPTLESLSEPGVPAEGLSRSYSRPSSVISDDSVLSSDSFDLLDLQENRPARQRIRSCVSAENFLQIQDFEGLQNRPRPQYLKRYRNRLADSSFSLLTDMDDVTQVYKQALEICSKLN
Data set [6] concerns the target Non-receptor tyrosine-protein kinase TYK2 (Homo sapiens, UniProt P29597). Nature of the data set: Inhibition of human TYK2.
The target in data set [7] is Tyrosine-protein kinase ITK/TSK (Homo sapiens) (UniProt Q08881). Nature of the data set: Inhibition of ITK (unknown origin) at 0.5 uM relative to control.
Tyrosine-protein kinase ITK/TSK (Homo sapiens), sequence (Q08881 whole entry): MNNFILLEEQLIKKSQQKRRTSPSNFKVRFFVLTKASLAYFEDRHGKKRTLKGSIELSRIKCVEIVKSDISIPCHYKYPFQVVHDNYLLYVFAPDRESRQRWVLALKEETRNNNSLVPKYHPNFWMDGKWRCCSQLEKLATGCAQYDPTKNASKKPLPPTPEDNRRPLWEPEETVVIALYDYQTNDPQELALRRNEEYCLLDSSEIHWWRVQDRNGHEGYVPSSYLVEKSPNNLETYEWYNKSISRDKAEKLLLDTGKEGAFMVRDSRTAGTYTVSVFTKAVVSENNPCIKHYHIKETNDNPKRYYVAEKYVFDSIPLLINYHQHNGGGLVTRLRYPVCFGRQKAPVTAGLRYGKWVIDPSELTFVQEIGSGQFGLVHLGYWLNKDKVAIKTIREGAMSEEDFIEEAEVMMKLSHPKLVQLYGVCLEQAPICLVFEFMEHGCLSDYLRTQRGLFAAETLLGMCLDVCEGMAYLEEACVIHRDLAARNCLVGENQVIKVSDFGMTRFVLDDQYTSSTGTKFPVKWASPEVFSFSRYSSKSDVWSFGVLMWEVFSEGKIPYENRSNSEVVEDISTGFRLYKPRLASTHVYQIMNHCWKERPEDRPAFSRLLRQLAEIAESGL
The target in data set [8] is Tyrosine-protein kinase TXK (Homo sapiens) (UniProt P42681). Put plainly: Inhibition of TXK (unknown origin) at 0.5 uM relative to control.
Tyrosine-protein kinase TXK (Homo sapiens), sequence (P42681 whole entry): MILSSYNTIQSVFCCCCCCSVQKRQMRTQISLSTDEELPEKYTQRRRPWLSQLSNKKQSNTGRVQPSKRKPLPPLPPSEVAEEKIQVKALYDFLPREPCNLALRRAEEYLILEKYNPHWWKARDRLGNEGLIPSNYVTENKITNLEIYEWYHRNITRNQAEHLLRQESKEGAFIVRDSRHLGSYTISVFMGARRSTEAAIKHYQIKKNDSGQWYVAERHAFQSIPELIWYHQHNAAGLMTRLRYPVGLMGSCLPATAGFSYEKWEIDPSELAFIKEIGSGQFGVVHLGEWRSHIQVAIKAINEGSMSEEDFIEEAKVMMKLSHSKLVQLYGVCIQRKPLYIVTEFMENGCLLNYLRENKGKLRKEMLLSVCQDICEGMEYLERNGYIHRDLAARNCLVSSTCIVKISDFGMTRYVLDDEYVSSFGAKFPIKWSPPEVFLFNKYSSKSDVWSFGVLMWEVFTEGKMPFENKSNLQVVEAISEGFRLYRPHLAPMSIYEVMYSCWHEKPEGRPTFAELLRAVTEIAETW
For data set [9], the target named is [Pyruvate dehydrogenase (acetyl-transferring)] kinase isozyme 1, mitochondrial (Homo sapiens) (UniProt Q15118). Nature of the data set: Inhibition of PDK1 (unknown origin) at 0.5 uM relative to control.
Data set [10] concerns the target T1, Signal transducer and activator of transcription 5A (Homo sapiens) (UniProt P42229).
T1 sequence (whole entry): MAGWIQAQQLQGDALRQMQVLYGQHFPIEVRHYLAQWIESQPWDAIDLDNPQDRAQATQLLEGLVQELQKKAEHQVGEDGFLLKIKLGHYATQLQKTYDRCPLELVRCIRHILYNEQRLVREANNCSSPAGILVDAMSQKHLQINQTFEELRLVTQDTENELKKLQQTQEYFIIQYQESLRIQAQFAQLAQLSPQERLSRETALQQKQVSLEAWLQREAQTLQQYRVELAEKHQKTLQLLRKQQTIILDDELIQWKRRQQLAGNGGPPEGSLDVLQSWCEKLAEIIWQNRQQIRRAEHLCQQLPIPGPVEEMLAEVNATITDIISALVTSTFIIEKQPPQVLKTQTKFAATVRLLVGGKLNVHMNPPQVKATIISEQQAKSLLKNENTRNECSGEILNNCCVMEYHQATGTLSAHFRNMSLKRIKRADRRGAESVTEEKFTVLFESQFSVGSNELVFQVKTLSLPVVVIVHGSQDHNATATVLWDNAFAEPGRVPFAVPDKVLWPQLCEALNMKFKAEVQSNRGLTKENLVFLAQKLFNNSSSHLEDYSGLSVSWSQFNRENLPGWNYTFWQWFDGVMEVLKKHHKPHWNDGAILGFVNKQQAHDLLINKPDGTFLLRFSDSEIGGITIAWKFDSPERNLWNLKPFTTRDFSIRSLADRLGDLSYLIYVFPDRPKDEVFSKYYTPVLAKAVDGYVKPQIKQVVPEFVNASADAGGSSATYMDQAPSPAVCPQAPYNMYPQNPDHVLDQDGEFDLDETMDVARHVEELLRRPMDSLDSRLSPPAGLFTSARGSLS
Put plainly: Inhibition of STAT5 activation in human U-937 cells assessed as decrease in P-STAT5 incubated for 0 to 24 hrs by Western blot analysis. Type of data set: cell-based. Particulars: time 0-24 hrs, DDE = dose-dependent effect.

The target in data set [11] is T2, Tyrosine-protein kinase JAK3 (Homo sapiens) (UniProt P52333).
T2 sequence (whole entry): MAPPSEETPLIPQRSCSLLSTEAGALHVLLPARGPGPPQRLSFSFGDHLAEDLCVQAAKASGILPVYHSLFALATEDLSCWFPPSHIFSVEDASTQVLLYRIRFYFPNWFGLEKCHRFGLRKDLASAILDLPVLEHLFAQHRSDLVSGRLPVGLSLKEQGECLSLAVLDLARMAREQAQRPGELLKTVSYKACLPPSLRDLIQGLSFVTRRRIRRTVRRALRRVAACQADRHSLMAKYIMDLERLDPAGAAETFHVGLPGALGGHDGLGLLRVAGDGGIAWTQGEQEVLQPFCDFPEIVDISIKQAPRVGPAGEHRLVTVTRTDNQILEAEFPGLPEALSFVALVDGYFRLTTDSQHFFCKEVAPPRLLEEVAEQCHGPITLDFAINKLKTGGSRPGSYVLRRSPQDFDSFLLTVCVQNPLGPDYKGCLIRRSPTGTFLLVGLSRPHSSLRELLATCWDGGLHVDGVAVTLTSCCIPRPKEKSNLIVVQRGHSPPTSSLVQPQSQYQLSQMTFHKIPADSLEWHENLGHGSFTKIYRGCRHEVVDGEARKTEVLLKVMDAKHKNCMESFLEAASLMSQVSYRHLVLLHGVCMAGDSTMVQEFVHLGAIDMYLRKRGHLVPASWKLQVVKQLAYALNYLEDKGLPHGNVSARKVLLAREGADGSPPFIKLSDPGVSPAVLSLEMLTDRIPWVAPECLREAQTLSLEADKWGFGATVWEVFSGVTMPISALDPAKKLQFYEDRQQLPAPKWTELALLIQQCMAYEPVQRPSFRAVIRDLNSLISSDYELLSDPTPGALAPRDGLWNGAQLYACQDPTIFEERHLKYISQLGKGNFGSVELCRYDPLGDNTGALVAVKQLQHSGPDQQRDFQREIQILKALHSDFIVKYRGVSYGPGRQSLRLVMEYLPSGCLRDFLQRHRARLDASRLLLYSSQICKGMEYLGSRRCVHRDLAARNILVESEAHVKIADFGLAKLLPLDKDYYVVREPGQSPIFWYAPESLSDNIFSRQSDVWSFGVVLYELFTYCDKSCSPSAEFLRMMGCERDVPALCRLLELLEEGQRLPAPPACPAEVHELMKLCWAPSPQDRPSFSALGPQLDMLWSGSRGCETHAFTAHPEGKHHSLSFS
Put plainly: Inhibition of JAK3 in human U-937 cells assessed as decrease in P-JAK3 phosphorylation at 200 uM pretreated for 10 hrs followed by compound washout by immunoblotting analysis. Type of data set: cell-based. (Immunoblotting shows a protein as a band on a membrane.)

The subject of data set [12] is U-937. Put plainly: Induction of cell cycle arrest in human U-937 cells assessed as accumulation at G0/G1 phase at 3.7 nM measured after 24 hrs by propidium iodide staining based flow cytometric analysis (reference value: 62.95%). Type of data set: functional. For orientation: A flow cytometer gives signals particle by particle.
Data set [13] has as its system U-937. Put plainly: Induction of cell cycle arrest in human U-937 cells assessed as accumulation at G0/G1 phase at 33 nM measured after 24 hrs by propidium iodide staining based flow cytometric analysis (reference value: 62.95%). Type of data set: functional.
In data set [14] the test system is U-937. Nature of the data set: Induction of cell cycle arrest in human U-937 cells assessed as accumulation at G0/G1 phase at 100 nM measured after 24 hrs by propidium iodide staining based flow cytometric analysis (reference value: 62.95%). Type of data set: functional.
For another data set, the system named is BaF3. Put plainly: cells. Particulars: Mus musculus, BaF3, 72 h.

Molecules are shown by their SMILES. Calls of active or inactive are those of the source. No cut-off for these calls is given here.

Non-receptor tyrosine-protein kinase TYK2, sequence (P29597 whole entry): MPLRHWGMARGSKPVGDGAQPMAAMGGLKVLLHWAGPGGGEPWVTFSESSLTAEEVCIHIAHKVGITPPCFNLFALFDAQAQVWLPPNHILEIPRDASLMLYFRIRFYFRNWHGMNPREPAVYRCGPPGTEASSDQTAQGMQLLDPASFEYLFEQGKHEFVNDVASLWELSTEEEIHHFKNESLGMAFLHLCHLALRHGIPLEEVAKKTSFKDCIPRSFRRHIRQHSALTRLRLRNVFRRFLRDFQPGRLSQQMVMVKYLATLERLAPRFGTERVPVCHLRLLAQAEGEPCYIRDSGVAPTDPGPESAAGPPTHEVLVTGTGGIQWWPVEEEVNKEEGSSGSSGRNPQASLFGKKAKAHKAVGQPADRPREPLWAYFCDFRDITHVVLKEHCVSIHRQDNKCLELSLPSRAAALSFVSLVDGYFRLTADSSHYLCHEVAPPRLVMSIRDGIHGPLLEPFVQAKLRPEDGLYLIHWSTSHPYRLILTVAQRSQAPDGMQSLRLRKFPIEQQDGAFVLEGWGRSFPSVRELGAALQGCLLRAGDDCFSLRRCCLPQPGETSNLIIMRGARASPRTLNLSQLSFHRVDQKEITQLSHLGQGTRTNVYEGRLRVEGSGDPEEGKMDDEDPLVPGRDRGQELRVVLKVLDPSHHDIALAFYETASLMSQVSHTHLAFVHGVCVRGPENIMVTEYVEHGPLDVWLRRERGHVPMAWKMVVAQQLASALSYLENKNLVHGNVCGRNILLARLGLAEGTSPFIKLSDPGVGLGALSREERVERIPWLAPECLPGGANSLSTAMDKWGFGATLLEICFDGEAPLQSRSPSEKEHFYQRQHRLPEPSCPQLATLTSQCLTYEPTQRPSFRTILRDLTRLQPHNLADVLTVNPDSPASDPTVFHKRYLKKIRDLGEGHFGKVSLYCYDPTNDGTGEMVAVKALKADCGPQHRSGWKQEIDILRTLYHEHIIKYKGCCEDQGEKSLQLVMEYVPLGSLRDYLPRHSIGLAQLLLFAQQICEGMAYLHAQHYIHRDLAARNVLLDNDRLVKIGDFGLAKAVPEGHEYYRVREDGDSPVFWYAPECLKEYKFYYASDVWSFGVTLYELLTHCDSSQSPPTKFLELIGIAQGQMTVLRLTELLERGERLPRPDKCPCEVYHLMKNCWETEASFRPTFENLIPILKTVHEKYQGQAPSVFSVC

One may read the half-life as the time in which the quantity being followed falls by half. Low readings indicate rapid decline, high ones slow decline. As a reminder, the AUC(0-inf) is total exposure, with the tail of the curve extrapolated. Read a low AUC(0-inf) as less exposure. As usually defined, the inhibition is the change of the read-out against control, counted positive when it falls. A word on the IC50: it is the concentration at which inhibition is half-maximal. Higher therefore signals weaker potency in that assay. `C=CC(=O)Nc1cc(Nc2ncc(Cl)c(O[C@@H]3CO[C@H]4[C@@H]3OC[C@H]4OC)n2)ccc1N(C)CCN(C)C`: the half-life in data set [1] was 54.6 min. In addition, the results for the AUC(0-inf) in [2] and in data set [3] were 334 ng·h/mL and 537 ng·h/mL, respectively. Further, the inhibition in data set [4] was 30%; in data set [7], 92%; in [8], 103%; in data set [9] it was 111%; in data set [10], “Dde”. Further, the IC50 came to 0.025 µM in [5], 0.365 µM in data set [6] and 0.0229 µM with BaF3. In [11], the inhibition result is “Active”. Further, the Activity was 61.57% in the data set with U-937 [12], 64.92% with U-937 [13] and 72.06% with U-937 [14].
